Test results as given in patent publication US20260115214A1, “APPLICATION OF INHIBITORS OF GLYCOLYTIC PATHWAY IN PREPARATION OF DRUGS FOR PREVENTING AND TREATING PORCINE REPRODUCTIVE AND RESPIRATORY SYNDROME VIRUS (PRRSV) INFECTION” (NANJING AGRICULTURAL UNIVERSITY, priority 2020, published 2026).

Key:
PRRSV = PRRSV replication in infected Marc-145 cells treated with glycolysis inhibitors (Western blotting, TCID50, RT-PCR); format: cell-based, porcine reproductive and respiratory syndrome virus; settings: for PRRSV ORF7 mRNA level in the cells (RT-PCR) / virus titer (TCID50) in cell culture medium: 36 h, 2-DG 0-15 μM; for PRRSV ORF7 mRNA level in the cells (RT-PCR) / PRRSV N protein expression level (Western blotting) / virus titer (TCID50) in cell culture medium: SO 0, 25, 50 mM; for PRRSV ORF7 mRNA level in the cells (RT-PCR) / PRRSV N protein expression level (Western blotting): Gal 10, 50, 100 μM; for PRRSV N protein expression level (Western blotting): 36 h after infection
Protocol: Highly pathogenic PRRSV strains BB0907 and Marc-145 cells are maintained in the laboratory and are conventional strains and cells disclosed in the prior art.
Marc-145 cells were cultured in a 96-well plate. When the cell confluence reached 70%, a nutrient solution was pipetted, and the cell surface was washed 3 times with PBS. Ten-fold serial dilutions of PRRSV were added to the cells and incubated at 37° C. for 1 h. A medium was replaced with fresh 2% FBS-DMEM. Virus titers were determined 5 days post inoculation (dpi) by endpoint dilution assay. 50% tissue culture infectious dose (TCID50) was calculated by a Reed-Muench method.
Cellular RNA was extracted following operating instructions of an OMEGA RNA virus extraction kit. After reverse transcription into cDNA, […].
By a 2-ΔΔCt method, the relative content of mRNA in each gene in the samples was calculated by a CT value.
(§1) To explore the effect of glycolysis in cells on PRRSV replication, an inhibitor of glycolytic pathway, 2-DG, was used to inhibit glycolysis in cells. […] After the Marc-145 cells were infected with PRRSV (0.01 MOI), the Marc-145 cells were treated with 0 μM, 2.5 μM, 5 μM, 10 μM and 15 μM of 2-DG respectively. After 36 hours, the inhibition efficiency of the 2-DG on PRRSV on the Marc-145 cells was detected by Western blotting.
To further verify the effect of glycolysis on PRRSV, PRRSV-infected Marc-145 cells were treated with a key enzyme in the last step of glycolysis, that is, an inhibitor of lactate dehydrogenase, sodium oxamate (SO). A control group was set up to detect whether there was a difference in the level of virus replication. […] After the Marc-145 cells were infected with PRRSV (0.01 MOI), the Marc-145 cells were treated with 0 mM, 25 mM and 50 mM of SO. 36 h after infection, the PRRSV N protein expression level, virus titer and PRRSV ORF7 mRNA level were detected by Western blotting, TCID50 and RT-PCR respectively.
PRRSV-infected Marc-145 cells were treated with an inhibitor of lactate dehydrogenase (Galloflavin, Gal), and a control group was set up to detect differences in viral replication levels. […] After Marc-145 cells were infected with PRRSV (0.01 MOI), the Marc-145 cells were treated with 10 μM, 50 μM and 100 μM of Gal. […] In addition, A PRRSV ORF7 mRNA level and the virus titer were detected by TCID50 and RT-PCR.

PRRSV BB0907 strain = assay: Treatment of PRRSV-infected piglets by oral administration; format: in vivo; settings: for microscopic lung lesion scores: day 14, compared with challenge control group, P<0.01; for gross lung lesion scores: day 14, compared with positive control group, sodium oxamate P<0.01, Galloflavin P<0.001; for PRRSV viral load in the lungs / histopathological changes of lungs / gross lung lesions (observation) / clinical symptoms (observation) / clinical symptoms compared with the positive control group / weight growth rate / virus content in the serum (PRRSV genome copy number, qRT-PCR): oral daily, sodium oxamate 7 mg or Galloflavin 10 μg; for PRRSV viral load in the lungs: 14 dpi, P<0.0001; for histopathological changes of lungs: day 14; for gross lung lesions (observation): day 14, compared with the positive control group; for clinical symptoms (observation): days 0-14; for clinical symptoms compared with the positive control group: days 0-14, P<0.001; for weight growth rate: days 0-14, P>0.05 vs negative control; for virus content in the serum (PRRSV genome copy number, qRT-PCR): serum at 1, 4, 7, 10, 14 dpi
Marc-145 cells = format: cell-based; settings: monkey, 48 h
Protocol: Marc-145 cells were cultured in 10% FBS-DMEM containing different concentrations of sodium oxamate (1-250 mM), Galloflavin (0-2.5 mM) and 2-deoxy-D-glucose (0-20 μM), and incubated at 37° C. for 48 h. Cell viability was detected with an enhanced CCK8 kit. DMSO was used as a negative control.
as §1
To further verify the effect of glycolysis on PRRSV, PRRSV-infected Marc-145 cells were treated with a key enzyme in the last step of glycolysis, that is, an inhibitor of lactate dehydrogenase, sodium oxamate (SO). […] 36 h after infection, the PRRSV N protein expression level, virus titer and PRRSV ORF7 mRNA level were detected by Western blotting, TCID50 and RT-PCR respectively.
PRRSV-infected Marc-145 cells were treated with an inhibitor of lactate dehydrogenase (Galloflavin, Gal), and a control group was set up to detect differences in viral replication levels. […] In addition, A PRRSV ORF7 mRNA level and the virus titer were detected by TCID50 and RT-PCR.

SMILES | level of PRRSV replication (figure legend) (PRRSV) | PRRSV ORF7 mRNA level in the cells (RT-PCR) (PRRSV; PRRSV 0.01 MOI) | PRRSV N protein expression level (Western blotting) (PRRSV; PRRSV 0.01 MOI) | microscopic lung lesion scores (PRRSV BB0907 strain) | gross lung lesion scores (PRRSV BB0907 strain) | PRRSV viral load in the lungs (PRRSV BB0907 strain) | histopathological changes of lungs (PRRSV BB0907 strain) | gross lung lesions (observation) (PRRSV BB0907 strain) | clinical symptoms (observation) (PRRSV BB0907 strain) | clinical symptoms compared with the positive control group (PRRSV BB0907 strain) | weight growth rate (PRRSV BB0907 strain) | virus content in the serum (PRRSV genome copy number, qRT-PCR) (PRRSV BB0907 strain) | virus titer (TCID50) in cell culture medium (PRRSV; PRRSV 0.01 MOI) | concentration at which the substance starts to be toxic to the cells (CCK8) (Marc-145 cells) [µM] | inhibition at 5 µM (PRRSV; Porcine reproductive and respiratory syndrome virus, MARC145, concentration of 5 μM, PRRSV 0.01 MOI, after 36 hours, read-out: inhibition efficiency against PRRSV (Western blotting)) [%]
O=c1oc2c(cc1O)oc(=O)c1cc(O)c(O)c(O)c12 [Galloflavin] | reduces the level of PRRSV replication | decrease the mRNA level of PRRSV in a dose-dependent manner | decrease PRRSV replication in the cells in a dose-dependent manner | significantly lower than those of the challenge control group | more significantly lower | significantly lower than that in the positive control group | significantly alleviated, similar to those in the negative control group | significantly minor lung lesions | no obvious clinical symptoms | significantly relieved clinical symptoms | approximate to that of the negative control group | significantly lower than that in the positive control group |  |  | 
NC(=O)C(=O)[O-].[Na+] [sodium oxamate] | reduces the level of PRRSV replication | reduce PRRSV replication in the cells in a dose-dependent manner | reduce PRRSV replication in the cells in a dose-dependent manner | significantly lower than those of the challenge control group | significantly lower | significantly lower than that in the positive control group | mild thickened alveolar septa and inflammatory cell infiltration | significantly minor lung lesions | no obvious clinical symptoms | significantly relieved clinical symptoms | approximate to that of the negative control group | significantly lower than that in the positive control group | reduce PRRSV replication in the cells in a dose-dependent manner | 100000 | 
O=CC[C@@H](O)[C@H](O)[C@H](O)CO [2-DG, 2-deoxy-D-glucose] | reduces the level of PRRSV replication | decreased in a dose-dependent manner |  |  |  |  |  |  |  |  |  |  | decreased in a dose-dependent manner |  | ~50
